We go through three molecules from patent US20260355166A1, “2-SUBSTITUTED PIPERIDINE DERIVATIVES, PREPARATION METHODS AND MEDICINAL USES THEREOF” (JIANGSU HANSOH PHARMACEUTICAL GROUP CO., LTD., priority 2022, published 2026).

The test system of series [1] is rabbit reticulocyte hemolysis. Description: Inhibition of AP Dependent Hemolysis (rabbit cells in human serum). It counts as cell-based, human serum; rabbit erythrocytes. The note with it: Oryctolagus cuniculus, GVB buffer with MgCl2 and EGTA, 37 °C, OD405. The procedure:
To quantify the inhibitory effects of compounds on the hemolytic activity of the alternative complement pathway, the AP hemolytic assay was employed. Test concentration of the compounds started at 100 μM and were diluted 3-fold in DMSO to produce 8-11 concentration points, with each concentration tested in technical triplicates. Human serum was added to rabbit reticulocytes in a solution of GVB buffer with MgCl2 and EGTA. After a period of incubation at 37 °C, spontaneous lysis of rabbit erythrocytes due to serum AP complement activity was quantified using OD405 absorbance, measured using the i3x plate reader.

Series [2] relates to MAC (Membrane Attack Complex) formation. Description: Inhibition of Human MAC Deposition (AP deposition assay, LPS activation, ELISA of C5b-9). It counts as biochemical. The note with it: human serum, LPS coated plates, GVB buffer with MgCl2 and EGTA, C5b-9 detection. The procedure:
To quantify the inhibitory effects of compounds on complement protein deposition following LPS activation of the alternative complement pathway, the AP deposition assay was employed. Test concentration of the compounds started at 11.1 μM or 3.70 µM and were diluted 3-fold in DMSO to produce 8 concentration points, with each concentration tested in technical triplicates. Human serum was combined with test compounds in GVB buffer containing 5 mM MgCl2 10 mM EGTA, and was added to LPS coated black Maxisorp plates. After a period of incubation, the plate was inverted, and ELISA detection of complement proteins bound to LPS was performed. A primary antibody that detected human C5b-9 was used, followed by a compatible HRP conjugated secondary antibody. Peroxidase activity was detected using the Quantablu Fluorogenic Peroxidase substrate kit and fluorescence was measured at 340 nm/435 nm using the i3x plate reader to determine the quantity of alternative pathway complement protein deposition.

Series [3] deals with T1, human Factor B (Homo sapiens, UniProt P00751).
T1 construct: Recombinant human Factor B catalytic domain (a.a. 470-764, C-terminal his-tagged, produced in-house); made in house
T1 sequence (P00751 470-764): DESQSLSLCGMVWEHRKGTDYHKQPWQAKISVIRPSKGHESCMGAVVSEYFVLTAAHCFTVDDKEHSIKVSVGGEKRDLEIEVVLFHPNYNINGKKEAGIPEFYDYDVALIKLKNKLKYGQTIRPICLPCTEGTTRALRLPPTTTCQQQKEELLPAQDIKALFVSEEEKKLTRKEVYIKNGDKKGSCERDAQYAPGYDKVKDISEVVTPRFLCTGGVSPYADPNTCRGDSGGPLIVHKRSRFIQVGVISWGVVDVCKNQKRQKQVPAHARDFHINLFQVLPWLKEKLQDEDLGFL
Description: Target Residence Time of Factor B Inhibitors Determined by Surface Plasmon Resonance (SPR). It is filed as binding. The note with it: for Kd: immobilized recombinant human Factor B catalytic domain, room temperature; for t1/2 (binding half-life): t1/2=ln 2/kd; for residence time: tR=1/kd. From the text: • 1. Recombinant human Factor B catalytic domain (a. a. 470-764, C-terminal his-tagged, produced in-house) • 2. PBS-P+ Buffer 10× (Cytiva, CAT #28995084) • 3. Series S Sensor Chip NTA (Cytiva, CAT #BR100532) • 4. Amine Coupling Kit (Cytiva, CAT #BR100050) • 5. DMSO (Millipore Sigma, CAT #34869-1L) • 6. Greiner 96 well plates, polypropylene (Sigma-Aldrich, CAT #M7310-100EA) • 7. Microplate Foil, 96-well (Cytiva, CAT #28975816) • 8. Biacore 8k (Cytiva)
Biacore 8k instrument was primed using 1×PBS-P+ buffer before docking a Cytiva NTA chip. Recombinant human Factor B catalytic domain were immobilized on a NTA chip to a level of about 5000 resonance units (RU) using 1×PBS-P+ buffer [[…] phosphate buffer with 2.7 mM KCl, 137 mM NaCl, and 0.05% (v/v) Tween-20]. The protein ligand was further crosslinked to sensorchip surface by amine coupling kit. Immobilization and binding experiment were performed at room temperature.
After changing buffer to 1×PBS-P+ buffer with 2% (v/v) DMSO, a pre-run was performed for a period of at least 30 min at a flow rate of 30 μl/min to obtain a stable surface. The kinetic constants of the compounds were determined by single-cycle kinetics with six consecutive injections (or multi-cycle kinetics with eight consecutive injections) with an increasing compound concentration in ranges of 0.8-200 nM, 12.5-400 nM, 4.1-1,000 nM or 41-10,000 nM depending on the potency. Single-cycle kinetics experiments were performed with an association time of 60 s per concentration and a dissociation time of 300 s (or a dissociation time of 120 s for multi-cycle kinetics experiments). A flow rate of 30 μl/min was used. A blank run with the same conditions was performed before the compound was injected.
The SPR sensorgrams were analyzed with Biacore Insight Evaluation Software by using a method of double referencing. The resulting curve was fitted with a 1:1 binding model. The kinetic constants (ka, kd, KD) of replicates were averaged. Residence time (tR) was calculated from the dissociation constant kd with the formula tR=1/kd. Binding half-life (t1/2) was calculated from the dissociation constant kd with the formula t1/2=ln 2/kd

The target of series [4] is T1, human Factor B. The series can be described thus: Factor B Binding Assay by TR-FRET. The note with it: recombinant human Factor B catalytic domain 10 nM, 100 nM tracer, 1 h. The procedure:
• 1. Recombinant human Factor B catalytic domain (a.a. 470-764, C-terminal his-tagged, produced in-house) • 2. 5× Kinase Buffer A (Thermo Fisher, CAT #PV3189) • 3. LANCE Eu-W1024 Anti-6×His Antibody (PerkinElmer, CAT #AD0401) • 4. Probe (TRFRET_tool 2, reported in WO 2015/009616)
[drawing 252] • 5. DMSO (Thermo Fisher Scientific) • 6. Compounds-10 mM stock in DMSO • 7. Victor Nivo multimode plate reader (PerkinElmer) • 8. OptiPlate-384, white opaque 384-well microplate (PerkinElmer, CAT #6007290)
Factor B binding affinity of each compound tested was determined using a time-resolved fluorescence resonance energy transfer (TR-FRET) technology. 10 nM recombinant his-tagged Factor B catalytic domain, varying concentrations of inhibitors, 4 nM LANCE Eu-W1024 Anti-6×His Antibody and 100 nM TRFRET_tool2 tracer was incubated in 1× Kinase Buffer A for 1 h. Measurement was performed in a reaction volume of 15 μL by adding 5 μL of the test compound, 5 μL of Factor B/antibody mixture and 5 μL of tracer into white opaque 384-well assay plates. The TR-FRET signal was read on a plate reader with an excitation wavelength of 340 nm and detection wavelengths of 615 and 665 nm. Binding affinity was determined for each compound by measuring TR-FRET signal at various concentrations of compound and plotting the relative fluorescence Emission Ratio (665 nm/615 nm) against the inhibitor concentration to estimate the IC50 from [Compound] vs Emission Ratio using the four parameters dose-response inhibition curve with a variable slope model in GraphPad Prism.
The binding affinity to recombinant Factor B catalytic domain of the compounds of the present invention was determined by the above assay, and IC50 values (nM) are shown in the following table.
For orientation: In TR-FRET formats the signal depends on donor and acceptor labels being close together.

Series [5] is described as follows: Pharmacokinetic Studies in Rats. It is filed as in vivo, brown Norway rats. The note with it: plasma, rat. The method, then: Three-month-old brown Norway rats were administered the Example compound intravenously (0.5 mg/kg dose, formulation: 10% 1,2-Propanediol+25% (20% solutol HS 15 in water)+65% phosphate buffered saline at 0.1 mg/mL) and via oral gavage at 2 mg/kg dose as a clear solution (0.5% MC+0.5% Tween 80 in water at 1 mg/mL). Plasma was collected from rats per time point at 0.25, 0.5, 1, 6, and 24 h after administration. The concentrations of the test article were measured in plasma by HPLC-MS/MS, two individual plasma samples at each time point. Chromatographic separation was carried out on Waters BEH C18 Column (2.1×50 mm, 1.7 μm) column (MAC-MOD Analytical, Chadds Ford, PA), using a gradient elution method with water and acetonitrile, both containing 0.025% formic acid-1 mM NH4OAc. Mass spectrometric measurements in positive electrospray ionization were directed at quantifying the mass transition with [M+H]^+ as the precursor ion on API6500, triple quadruple mass spectrometer (Sciex, Framingham, MA). The relevant pharmacokinetic parameters were estimated using noncompartmental methods using WinNonlin (Enterprise, version 8.2).

In series [1], `COc1cc(C)c2[nH]ccc2c1CN1CCC2(CC(F)(F)C2)C[C@@]1(C)c1ccc(C(=O)O)cc1` (single isomer, unassigned) [Example 3 isomer 1] gave an IC50 of 0.252 µM. For the same molecule, the IC50 in series [2] stood at 0.193 µM. Besides, in series [3], the equilibrium dissociation constant (Kd) is 0.00173 µM, the “t1/2 (binding half-life)” value was 12.6 min and the residence time was 18.2 min. Also, the concentration for half-maximal inhibition (IC50) in series [4] worked out at 0.00114 µM.
Turning to `COc1cc(C)c2[nH]ccc2c1CN1CCC2(CC(F)(F)C2)CC12CCc1cc(C(=O)O)ccc12` (single isomer, unassigned) [Example 1 isomer 1, 3,3-difluoro-1′-((5-methoxy-7-methyl-1H-indol-4-yl)methyl)-2″,3″-dihydrodispiro[cyclobutane-1,4′-piperidine-2′,1″-indene]-5″-carboxylic acid], the IC50 in series [1] stood at 0.22 µM; in series [2], 0.147 µM; in series [4], 0.00105 µM. For the same molecule, the bioavailability in series [5] (2 mg/kg, 0.5 mpk IV and 2 mpk PO) was 56%. Besides, the clearance in series [5] (0.5 mg/kg IV, read-out: 0.5 MPK IV arm CL) amounted to 1.3 mL/min/kg. In addition, in series [5] (2 mg/kg PO, read-out: T½ (h) - 2 MPK PO (converted)), the half-life was 8.5 h. In addition, the AUC(0-t) in series [5] (0.5 mpk IV and 2 mpk PO (arm not printed in this column head), read-out: Plasma AUC0-last) was 25.4 µM·h. The Kd in series [3] was 0.0009 µM. For the same molecule, the “t1/2 (binding half-life)” value in series [3] worked out at 11.8 min. Besides, the residence time in series [3] was 16.9 min.
Regarding `COc1cc(C)c2[nH]ccc2c1CN1CCC2(CC(F)(F)C2)C[C@]12CCCc1cc(C(=O)O)ccc12` (single isomer, unassigned) [Example 2 isomer 1], the IC50 in series [1] was 0.283 µM. The molecule also showed an IC50 in series [2] of 0.129 µM. Also, in series [3], the dissociation constant (Kd) was determined as 0.0022 µM, the “t1/2 (binding half-life)” value amounted to 13.6 min and the residence time is 19.6 min. In addition, in series [4], the 50% inhibitory concentration (IC50) amounted to 0.00201 µM.

A word on the IC50: it is the point on the concentration scale where inhibition reaches its midpoint. A word on the Kd: it is the equilibrium constant for the complex coming apart. The term residence time denotes the mean lifetime of the complex, commonly the reciprocal of the off-rate. In general, bioavailability refers to the share of a dose that reaches the circulation, judged against a reference dose that is usually intravenous. Read a high bioavailability as much systemic uptake.
